Source: US5106854A, “Quinolinecarboxylic acids” (Shionogi & Co., Ltd., priority 1988, dated 1992)
Converted amounts (≈) assume the structure as drawn. Counter-ions that a name gives are not always drawn.

Tests used:
Format in all cases: cell-based
Escherichia coli EC-14 = assay: Antibacterial spectrum, minimum growth inhibitory concentration (MIC), strain C; settings: EC14, 10^6 cells/ml, Japan Society of Chemotherapy method
Method: (§1) The antibacterial activity was determined by measuring minimum growth inhibitory concentrations (MICs) in accordance with the method designated by the Japan Society of Chemotherapy. A, B, C and D in the table indicate the following meanings: C: Escherichia coli EC-14 The test microorganisms were used at 10^6 cells/ml.

[1] = system: Staphylococcus aureus SMITH; assay: Antibacterial spectrum, minimum growth inhibitory concentration (MIC), strain A; settings: 10^6 cells/ml, Japan Society of Chemotherapy method
Method: as §1, with “A: Staphylococcus aureus SMITH” for “C: Escherichia coli EC-14”

[2] = system: Escherichia coli SR377 (R); assay: Antibacterial spectrum, minimum growth inhibitory concentration (MIC), strain D; settings: 10^6 cells/ml, Japan Society of Chemotherapy method
Method: as §1, with “D:” for “C:”, “SR377 (R).” for “EC-14”

[3] = system: Staphylococcus aureus SR 14 (R); assay: Antibacterial spectrum, minimum growth inhibitory concentration (MIC), strain B; settings: 10^6 cells/ml, Japan Society of Chemotherapy method
Method: The antibacterial activity was determined by measuring minimum growth inhibitory concentrations (MICs) in accordance with the method designated by the Japan Society of Chemotherapy.
A, B, C and D in the table indicate the following meanings:
B: Staphylococcus aureus SR 14 (R)
The test microorganisms were used at 10^6 cells/ml.

Row | Structure (SMILES) | MIC (Escherichia coli EC-14) [mg/L] | MIC [1] [mg/L] | MIC [2] [mg/L] | MIC [3] [mg/L]
1 | CN[C@H]1CN(c2c(F)c(N)c3c(=O)c(C(=O)O)cn(C4CC4)c3c2F)C[C@H]1OC [Compound I-1, (+)-1-Cyclopropyl-5-amino-6,8-difluoro-1,4-dihydro-7-(cis-3-methylamino-4-methoxy-1-pyrrolidinyl)-4-oxo-3-quinolinecarboxylic acid hydrochloride] | 0.1 | 0.1 | 0.2 | 0.1
2 | CN[C@@H]1CN(c2c(F)c(N)c3c(=O)c(C(=O)O)cn(C4CC4)c3c2F)C[C@@H]1OC (relative stereo) [Compound I-11, 1-Cyclopropyl-5-amino-6,8-difluoro-1,4-dihydro-7-(cis-3-methylamino-4-methoxy-1-pyrrolidinyl)-4-oxo-3-quinolinecarboxylic acid] | 0.05 (≈ 0.122 µM) | 0.05 (≈ 0.122 µM) | 0.1 (≈ 0.245 µM) | 0.05 (≈ 0.122 µM)
3 | CN[C@@H]1CN(c2c(F)c(N)c3c(=O)c(C(=O)O)cn(C4CC4)c3c2F)C[C@@H]1OC.Cl [Compound I-2, (-)-1-Cyclopropyl-5-amino-6,8-difluoro-1,4-dihydro-7-(cis-3-methylamino-4-methoxy-1-pyrrolidinyl)-4-oxo-3-quinolinecarboxylic acid hydrochloride] | 0.05 | 0.05 | 0.1 | 0.05
4 | CC1COc2c(N3CCN(C)CC3)c(F)cc3c(=O)c(C(=O)O)cn1c23 (stereo not shown) [OFLX, ofloxacin, reference compound] | 0.1 (≈ 0.277 µM) | 0.2 (≈ 0.553 µM) | 0.1 (≈ 0.277 µM) | 0.4 (≈ 1.11 µM)

These reach a lower MIC (Escherichia coli EC-14). Values come first.

Row | MIC (Escherichia coli EC-14) [mg/L] | MIC [1] [mg/L] | MIC [2] [mg/L] | MIC [3] [mg/L] | Structure (SMILES)
5 | 0.02 | 0.02 | 0.05 | 0.02 | CO[C@H]1CN(c2c(F)c(N)c3c(=O)c(C(=O)O)cn(C4CC4)c3c2F)C[C@H]1N [Compound I-4, (-)-1-Cyclopropyl-5-amino-6,8-difluoro-1,4-dihydro-7-(cis-3-amino-4-methoxy-1-pyrrolidinyl)-4-oxo-3-quinolinecarbxylic acid hydrochloride]
6 | 0.02 | 0.05 | 0.1 | 0.05 | CO[C@@H]1CN(c2c(F)c(N)c3c(=O)c(C(=O)O)cn(C4CC4)c3c2F)C[C@@H]1N [Compound I-3, (+)-1-Cyclopropyl-5-amino-6,8-difluoro-1,4-dihydro-7-(cis-3-amino-4-methoxy-1-pyrrolidinyl)-4-oxo-3-quinolinecarboxylic acid hydrochloride]
7 | 0.02 (≈ 0.0507 µM) | 0.02 (≈ 0.0507 µM) | 0.05 (≈ 0.127 µM) | 0.05 (≈ 0.127 µM) | CO[C@H]1CN(c2c(F)c(N)c3c(=O)c(C(=O)O)cn(C4CC4)c3c2F)C[C@H]1N (relative stereo) [Compound I-5, 1-Cyclopropyl-5-amino-6,8-difluoro-1,4-dihydro-7-(cis-3-amino-4-methoxy-1-pyrrolidinyl)-4-oxo-3-quinolinecarboxylic acid]
